Earlier results as cited in publication PMC7898808 (Diabetes, Obesity & Metabolism, 2020).
Like-named read-outs stand apart in the source and are kept apart here.

Tests used:
fructose-stimulated DNL = conditions: single dose of 20 mg, healthy population
NAFLD patients = conditions: 20 mg for 12 weeks
steady-state DNL = conditions: repeat dosing in NASH subjects

In the case of `COc1ccccc1[C@H](Cn1c(=O)n(C(C)(C)C(=O)O)c(=O)c2c(C)c(-c3ncco3)sc21)OC1CCOCC1` [GS-0976], the “reduction of fructose-stimulated DNL” value (fructose-stimulated DNL) is listed as 70%, the “patients achieving relative MRI-PDFF reduction of ≥30%” value (NAFLD patients) is listed as 43% and the “decrease of steady-state DNL” value (steady-state DNL) is listed as 22%.
In the case of `Cc1nnc(-c2cc(C(=O)N3CCC(c4ccc(C#N)cc4)CC3)c(C)cc2C2CCC2)[nH]1` [TVB-2640], the DNL inhibition (hepatic DNL; 50 mg daily dosing for 10 days) is listed as 23%, the DNL inhibition (hepatic DNL; 100 mg daily dosing for 10 days) is listed as 65% and the DNL inhibition (hepatic DNL; 150 mg daily dosing for 10 days) is listed as 77%.
